# Values of other authors in US20240415829A1, “METHODS AND COMPOSITIONS FOR THE TREATMENT OF DRUG OVERDOSE” (priority 2023, published 2024).
# Legend:
# [1] = xylazine 0.15 mg/kg, sheep 58-69 kg
# [2] = human clinical trials
# [3] = results from other studies; individuals with OUD, tobacco use disorder, AUD
Compound,"sedation, respiration, blood pressure and heart rate effects [1]",adverse effects leading to termination of human trials [2],doses supported for safe use in humans [3]
Cc1cccc(C)c1NC1=NCCCS1 [xylazine],significant sedation/decreased respiration and decreased blood pressure/heart rate,severe hypotension and central nervous system (CNS) depressant effects,
COC(=O)[C@@H]1[C@H]2C[C@H]3c4[nH]c5ccccc5c4CCN3C[C@@H]2CC[C@@H]1O [yohimbine],,,up to 60 mg
